Source: patent US9062124B2, “GIP-based mixed agonists for treatment of metabolic disorders and obesity” (priority 2008, dated 2015)
Where a SMILES comes first, the peptide text is derived from it. [ ]: non-standard residue; d: D form. The star is where a group is joined. Stearoyl = CCCCCCCCCCCCCCCCCC(=O)*; Palmitoyl = CCCCCCCCCCCCCCCC(=O)*; Myristoyl = CCCCCCCCCCCCCC(=O)*; Aib = CC(C)(N)C(=O)O

Tests used:
Format in all cases: cell-based
[1] = target: T1, glucagon receptor (Homo sapiens, UniProt P47871); test: cAMP synthesis functional assay (firefly luciferase reporter in HEK293 cells), glucagon receptor; settings: for EC50: Glucagon Receptor EC50, cAMP luciferase reporter assay as in Example 16
T1 construct: expressed in transfected cells; host or cells: HEK293

[2] = target: T2, GIP receptor (Homo sapiens, UniProt P48546); test: cAMP synthesis functional assay (firefly luciferase reporter in HEK293 cells), GIP receptor; settings: for EC50: GIP Receptor EC50, cAMP luciferase reporter assay as in Example 16
T2 construct: expressed in transfected cells; host or cells: HEK293
T2 sequence (P48546 22-466): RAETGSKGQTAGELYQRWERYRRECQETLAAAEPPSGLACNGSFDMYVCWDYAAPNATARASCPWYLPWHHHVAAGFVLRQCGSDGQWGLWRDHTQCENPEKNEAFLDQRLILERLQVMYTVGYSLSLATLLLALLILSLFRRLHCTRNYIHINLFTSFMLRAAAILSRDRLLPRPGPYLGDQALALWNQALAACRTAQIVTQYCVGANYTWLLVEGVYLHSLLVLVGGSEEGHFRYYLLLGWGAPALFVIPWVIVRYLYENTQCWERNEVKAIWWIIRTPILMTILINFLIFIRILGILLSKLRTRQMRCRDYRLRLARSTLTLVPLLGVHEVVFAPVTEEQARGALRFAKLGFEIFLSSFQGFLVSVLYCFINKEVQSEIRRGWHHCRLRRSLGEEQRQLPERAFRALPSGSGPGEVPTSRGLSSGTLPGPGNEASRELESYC

[3] = target: T3, GLP-1 receptor (Homo sapiens, UniProt P43220); test: cAMP synthesis functional assay (firefly luciferase reporter in HEK293 cells), GLP-1 receptor
T3 construct: expressed in transfected cells; host or cells: HEK293

[4] = relative to the standard (Std.) EC50 of the same run
[5] = GLP-1 Receptor EC50, cAMP luciferase reporter assay as in Example 16

T3 sequence (P43220 24-463, species assumed): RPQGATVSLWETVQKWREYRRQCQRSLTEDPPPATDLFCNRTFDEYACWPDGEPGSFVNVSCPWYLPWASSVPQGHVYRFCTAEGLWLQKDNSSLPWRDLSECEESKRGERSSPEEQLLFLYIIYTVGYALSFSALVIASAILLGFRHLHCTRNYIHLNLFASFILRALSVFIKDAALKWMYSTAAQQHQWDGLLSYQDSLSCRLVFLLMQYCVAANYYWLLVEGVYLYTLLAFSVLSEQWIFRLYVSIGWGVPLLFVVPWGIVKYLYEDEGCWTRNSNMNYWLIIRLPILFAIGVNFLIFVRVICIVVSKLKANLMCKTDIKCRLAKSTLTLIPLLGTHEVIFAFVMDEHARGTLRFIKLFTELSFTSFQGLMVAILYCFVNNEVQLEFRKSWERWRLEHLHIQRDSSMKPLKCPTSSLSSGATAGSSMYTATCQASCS
T1 sequence (P47871 26-477): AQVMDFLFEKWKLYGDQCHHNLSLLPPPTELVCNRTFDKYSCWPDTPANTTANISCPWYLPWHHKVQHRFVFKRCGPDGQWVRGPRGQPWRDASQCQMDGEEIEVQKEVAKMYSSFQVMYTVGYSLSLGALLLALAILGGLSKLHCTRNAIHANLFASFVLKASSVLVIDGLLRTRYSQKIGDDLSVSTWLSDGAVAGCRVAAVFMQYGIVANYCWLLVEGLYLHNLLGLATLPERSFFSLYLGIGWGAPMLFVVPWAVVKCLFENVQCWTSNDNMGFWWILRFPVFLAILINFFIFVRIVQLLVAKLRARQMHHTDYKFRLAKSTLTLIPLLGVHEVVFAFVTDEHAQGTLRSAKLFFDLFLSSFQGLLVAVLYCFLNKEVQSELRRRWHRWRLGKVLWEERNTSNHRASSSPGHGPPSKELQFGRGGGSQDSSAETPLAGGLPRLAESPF

Structure (SMILES)	Glucagon Receptor relative activity ([1]; Table 2) [%]	GIP Receptor relative activity ([2]; Table 2) [%]	EC50 ([3]; GLP-1 Receptor EC50, nM, Table 2) [nM]	GLP-1 Receptor relative activity ([3]; Table 2) [%]	Glucagon Receptor relative activity [1, 4] [%]	EC50 [2] [nM]	GIP Receptor relative activity [2, 4] [%]	EC50 [3, 5] [nM]	GLP-1 Receptor relative activity [3, 4] [%]	EC50 [1] [nM]
CC[C@H](C)[C@H](NC(=O)[C@H](CO)NC(=O)[C@H](Cc1ccc(O)cc1)NC(=O)[C@H](CC(=O)O)NC(=O)[C@H](CO)NC(=O)[C@@H](NC(=O)[C@H](Cc1ccccc1)NC(=O)[C@@H](NC(=O)CNC(=O)[C@H](CCC(N)=O)NC(=O)C(C)(C)NC(=O)[C@@H](N)Cc1ccc(O)cc1)[C@@H](C)O)[C@@H](C)O)C(=O)N[C@@H](Cc1ccc(O)cc1)C(=O)N[C@@H](CC(C)C)C(=O)N[C@@H](CC(=O)O)C(=O)NC(C)(C)C(=O)N[C@@H](CCC(N)=O)C(=O)N[C@@H](C)C(=O)N[C@@H](C)C(=O)N[C@@H](CCCCN)C(=O)N[C@@H](CCC(=O)O)C(=O)N[C@@H](Cc1ccccc1)C(=O)N[C@H](C(=O)N[C@@H](CC(N)=O)C(=O)N[C@@H](Cc1c[nH]c2ccccc12)C(=O)N[C@@H](CC(C)C)C(=O)N[C@@H](CC(C)C)C(=O)N[C@@H](C)C(=O)NCC(=O)NCC(=O)N1CCC[C@H]1C(=O)N[C@@H](CO)C(=O)N[C@@H](CO)C(=O)NCC(=O)N[C@@H](C)C(=O)N1CCC[C@H]1C(=O)N1CCC[C@H]1C(=O)N1CCC[C@H]1C(=O)N[C@@H](CO)C(=O)N[C@@H](CS)C(N)=O)C(C)C [mt-241] (H-Y[Aib]QGTFTSDYSIYLD[Aib]QAAKEFVNWLLAGGPSSGAPPPSC-NH2; N-terminus assumed)	3.73	4.37	0.023	130.43	–	–	–	–	–	–
CC[C@H](C)[C@H](NC(=O)[C@H](CO)NC(=O)[C@H](Cc1ccc(O)cc1)NC(=O)[C@H](CC(=O)O)NC(=O)[C@H](CO)NC(=O)[C@@H](NC(=O)[C@H](Cc1ccccc1)NC(=O)[C@@H](NC(=O)CNC(=O)[C@H](CCC(=O)O)NC(=O)C(C)(C)NC(=O)[C@@H](N)Cc1ccc(O)cc1)[C@@H](C)O)[C@@H](C)O)C(=O)N[C@@H](Cc1ccc(O)cc1)C(=O)N[C@@H](CC(C)C)C(=O)N[C@@H](CC(=O)O)C(=O)N[C@@H](CCCCN)C(=O)N[C@@H](CCC(N)=O)C(=O)N[C@@H](C)C(=O)N[C@@H](C)C(=O)NC(C)(C)C(=O)N[C@@H](CCC(=O)O)C(=O)N[C@@H](Cc1ccccc1)C(=O)N[C@H](C(=O)N[C@@H](CC(N)=O)C(=O)N[C@@H](Cc1c[nH]c2ccccc12)C(=O)N[C@@H](CC(C)C)C(=O)N[C@@H](CC(C)C)C(=O)N[C@@H](C)C(=O)NCC(=O)NCC(=O)N1CCC[C@H]1C(=O)N[C@@H](CO)C(=O)N[C@@H](CO)C(=O)NCC(=O)N[C@@H](C)C(=O)N1CCC[C@H]1C(=O)N1CCC[C@H]1C(=O)N1CCC[C@H]1C(=O)N[C@@H](CO)C(=O)N[C@@H](CS)C(N)=O)C(C)C [mt-256]	–	–	–	–	0.12	0.0034	282.35	0.0124	95.97	–
CCCCCCCCCCCCCC(=O)NCCCC[C@H](NC(=O)[C@H](CC(=O)O)NC(=O)[C@H](CO)NC(=O)[C@@H](NC(=O)[C@H](Cc1ccccc1)NC(=O)[C@@H](NC(=O)CNC(=O)[C@H](CCC(=O)O)NC(=O)C(C)(C)NC(=O)[C@@H](N)Cc1ccc(O)cc1)[C@@H](C)O)[C@@H](C)O)C(=O)N[C@@H](CO)C(=O)N[C@H](C(=O)N[C@@H](Cc1ccc(O)cc1)C(=O)N[C@@H](CC(C)C)C(=O)N[C@@H](CC(=O)O)C(=O)N[C@@H](CCCCN)C(=O)N[C@@H](CCC(N)=O)C(=O)N[C@@H](C)C(=O)N[C@@H](C)C(=O)NC(C)(C)C(=O)N[C@@H](CCC(=O)O)C(=O)N[C@@H](Cc1ccccc1)C(=O)N[C@H](C(=O)N[C@@H](CC(N)=O)C(=O)N[C@@H](Cc1c[nH]c2ccccc12)C(=O)N[C@@H](CC(C)C)C(=O)N[C@@H](CC(C)C)C(=O)N[C@@H](C)C(=O)NCC(=O)NCC(=O)N1CCC[C@H]1C(=O)N[C@@H](CO)C(=O)N[C@@H](CO)C(=O)NCC(=O)N[C@@H](C)C(=O)N1CCC[C@H]1C(=O)N1CCC[C@H]1C(=O)N1CCC[C@H]1C(=O)N[C@@H](CO)C(N)=O)C(C)C)[C@@H](C)CC [mt-269] (H-Y[Aib]EGTFTSDK(Myristoyl)SIYLDKQAA[Aib]EFVNWLLAGGPSSGAPPPS-NH2; N-terminus assumed)	–	–	–	–	0.11	0.0057	140.35	0.0136	144.85	183
CCCCCCCCCCCCCCCC(=O)NCCCC[C@H](NC(=O)[C@H](CC(=O)O)NC(=O)[C@H](CO)NC(=O)[C@@H](NC(=O)[C@H](Cc1ccccc1)NC(=O)[C@@H](NC(=O)CNC(=O)[C@H](CCC(=O)O)NC(=O)C(C)(C)NC(=O)[C@@H](N)Cc1ccc(O)cc1)[C@@H](C)O)[C@@H](C)O)C(=O)N[C@@H](CO)C(=O)N[C@H](C(=O)N[C@@H](Cc1ccc(O)cc1)C(=O)N[C@@H](CC(C)C)C(=O)N[C@@H](CC(=O)O)C(=O)N[C@@H](CCCCN)C(=O)N[C@@H](CCC(N)=O)C(=O)N[C@@H](C)C(=O)N[C@@H](C)C(=O)NC(C)(C)C(=O)N[C@@H](CCC(=O)O)C(=O)N[C@@H](Cc1ccccc1)C(=O)N[C@H](C(=O)N[C@@H](CC(N)=O)C(=O)N[C@@H](Cc1c[nH]c2ccccc12)C(=O)N[C@@H](CC(C)C)C(=O)N[C@@H](CC(C)C)C(=O)N[C@@H](C)C(=O)NCC(=O)NCC(=O)N1CCC[C@H]1C(=O)N[C@@H](CO)C(=O)N[C@@H](CO)C(=O)NCC(=O)N[C@@H](C)C(=O)N1CCC[C@H]1C(=O)N1CCC[C@H]1C(=O)N1CCC[C@H]1C(=O)N[C@@H](CO)C(N)=O)C(C)C)[C@@H](C)CC [mt-270] (H-Y[Aib]EGTFTSDK(Palmitoyl)SIYLDKQAA[Aib]EFVNWLLAGGPSSGAPPPS-NH2; N-terminus assumed)	–	–	–	–	0.06	0.0049	163.27	0.0093	211.83	306
CCCCCCCCCCCCCCCCCC(=O)NCCCC[C@H](NC(=O)[C@H](CC(=O)O)NC(=O)[C@H](CO)NC(=O)[C@@H](NC(=O)[C@H](Cc1ccccc1)NC(=O)[C@@H](NC(=O)CNC(=O)[C@H](CCC(=O)O)NC(=O)C(C)(C)NC(=O)[C@@H](N)Cc1ccc(O)cc1)[C@@H](C)O)[C@@H](C)O)C(=O)N[C@@H](CO)C(=O)N[C@H](C(=O)N[C@@H](Cc1ccc(O)cc1)C(=O)N[C@@H](CC(C)C)C(=O)N[C@@H](CC(=O)O)C(=O)N[C@@H](CCCCN)C(=O)N[C@@H](CCC(N)=O)C(=O)N[C@@H](C)C(=O)N[C@@H](C)C(=O)NC(C)(C)C(=O)N[C@@H](CCC(=O)O)C(=O)N[C@@H](Cc1ccccc1)C(=O)N[C@H](C(=O)N[C@@H](CC(N)=O)C(=O)N[C@@H](Cc1c[nH]c2ccccc12)C(=O)N[C@@H](CC(C)C)C(=O)N[C@@H](CC(C)C)C(=O)N[C@@H](C)C(=O)NCC(=O)NCC(=O)N1CCC[C@H]1C(=O)N[C@@H](CO)C(=O)N[C@@H](CO)C(=O)NCC(=O)N[C@@H](C)C(=O)N1CCC[C@H]1C(=O)N1CCC[C@H]1C(=O)N1CCC[C@H]1C(=O)N[C@@H](CO)C(N)=O)C(C)C)[C@@H](C)CC [mt-271] (H-Y[Aib]EGTFTSDK(Stearoyl)SIYLDKQAA[Aib]EFVNWLLAGGPSSGAPPPS-NH2; N-terminus assumed)	–	–	–	–	0.17	0.0056	142.86	0.0106	185.85	113
